Assays:
[1] = tested on: NZO mice fed a high fat diet; assay: Implantation rate and resorption, comparison of macrolides; format: in vivo, mouse; conditions: vs vehicle
Experimental: (§1) For the comparative evaluation of other macrolide drugs to tacrolimus, mice starting at 7 weeks of age were maintained on the high fat diet for a total of 13 weeks of study period. Mice were entered into the experiments when determined to be glucose intolerant as described above. Methods of drug administration and other experimental methods were as described above.
Peri-implantation (E4.5) and post-implantation (E6.5) pregnant and/or pseudopregnant (E4.5bid and E6.5bid) mouse uteri were prepared after mating respectively with fertile and/or vasectomized males as previously described (Herington et al. Endocrinol 2009 150: 4404-4413). The morning of vaginal plug detection was considered as gestational day 0.5 (E0.5 or Gd.0.5). An average number of twenty Concanavalin A(ConA)-coated sepharose beads (average size of 0.1 mm-diameter) (Sigma-Aldrich, Burlington, Ontario, Canada) was injected into the lumen of the left uterine horn of anesthetized animals between hours 13:00 and 16:00 on day 2.5 of pseudopregnancy according to the procedure described by Herington et al. (Endocrinol, 2009 150: 4404-4413). With the use of Ketamine/Xyalzine anesthesia and cardiac puncture, all animals were sacrificed at the age of 16-18 weeks between the morning hours 09:00-11:00. Pregnant and pseudopregnant mice were sacrificed in the morning of days 4.5 and 6.5 of their respective pregnancy. Blood samples were collected from all animals and were let stand for 1 hour at room temperature before isolation of the serum. Serum samples were stored at −80° C. until they were analyzed for their steroid hormones and lipid contents by appropriate laboratory procedures such as radio-immunoassay (RIA) all of which were conducted at the Department of Clinical Chemistry (Kingston General Hospital, Kingston, Ontario, Canada). Ovaries, oviducts and uteri were carefully dissected out of carcasses and were placed in ice-cold phosphate buffered saline (PBS)-containing petri dishes. Under a dissecting microscope, uteri were carefully isolated from their attached uterine tubes, trimmed of all mesenteric fat and were immediately weighed. The numbers of corpora lutea and implantation sites (viable and resorbed) were counted, respectively, from E4.5 and E6.5 pregnant mouse ovaries and uteri. For protein and RNA extraction, virgin uteri and segments of uterine horns containing inter-implantation sites of pregnant and pseudopregnant uteri were transected and snapped frozen in liquid nitrogen.
Examination of external morphological features of uteri of pregnant mice, including counts of implantation sites and photography was performed using a computerized dissecting microscope (Leica Diagnostic Instruments, USA) and the image acquisition and analytic software (SPOT 2.2.0). Percentage of peri-implantation embryo loss was calculated as described by Bindali and Kaliwal (Ind. Health, 2002 40:191-197), using the formula: % Preimplantation loss=[Total number of corpora lutea−Total number of implantation]/Total number of corpora lutea. Immunohistochemical localization and assessment of microscopic morphological features of implantation and inter-implantation sites in normoglycemic and diabetic NOD mice were performed on methacarn (60% methanol, 30% chloroform and 10% acetic acid)-fixed specimens. […]

[2] = tested on: female NZO mice fed a continuous high fat diet; assay: Weight loss, comparison of macrolides; format: in vivo, mouse; conditions: tacrolimus 0.05 or 0.1 mg/kg, pimecrolimus 0.1 mg/kg, sirolimus 0.1 mg/kg s.c. every other day for three weeks; vs vehicle
Source text: as §1

[3] = tested on: type 2 diabetes NZO mouse model; assay: HOMA-IR, HOMA-B and insulin sensitivity index (Si); format: in vivo
Experimental: (§2) Female mice were administered tacrolimus (0.1 mg/kg or 0.05 mg/kg, n=6/group), vehicle (n=10), pimecrolimus (0.1 mg/kg, n=6) or sirolimus (0.1 mg/kg, n=6) subcutaneously every other day for 3 weeks.
HOMA IR=fasting glucose (mmol/L)×fasting insulin ([…])/22.5 according to the method of Bonora E et al., 2000. Pancreatic β-Cell function (HOMA-B) was calculated according to the method of Tresaco B et al., 2005, HOMA-B=[20×[…]). Insulin sensitivity (Si) was determined according to the method of Matthews D et al., 1985. Si=[basal glucose]−[glucose 15 min]/15).

[4] = tested on: NZO mice fed a high fat diet; assay: Fasting serum glucose, fasting serum insulin and glucose tolerance, comparison of macrolides; format: in vivo, mouse
Experimental: as §2, §1
Glucose Tolerance Test (GTT): was performed according to standard protocol (Ayala et al 2010). Briefly, basal glucose levels were measured for conscious mice individually caged in 1000 cc plastic mouse caging using a one-touch ultra glucose strips and meter (Acqui-check Aviva, Roche, Montreal, Canada) and approximately 30 microliters of blood obtained via tail venipuncture prior to fasting for six hours in cages equipped with hardwood bedding. Fasting blood glucose was recorded at the end of the six hours fasting period. Mice were then tested for oral glucose tolerance (OGTT) or for insulin sensitivity (Si). For OGTT alert mice were then given 20% D-glucose (2 g/kg body weight) sterile syrup administered orally. For Si experiments mice were given 20% D-glucose (2 g/kg body weight) sterile syrup by intraperitoneal administration through a 1 ml D29 gage “½” insulin syringe (Fisher Scientific, Montreal, Canada). Then after, blood glucose was recorded at 15, 30, 45, 60, 90 and 120 minutes respectively. For Si experiments blood glucose was determined only at 15 minutes. Glucose tolerance graphs were generated by blotting mean±standard error of the mean (SEM) of the recorded glucose data per mouse per minute collection time. One way analysis of variance (ANOVA) followed by student t-test was performed to determine alpha values for statistical differences among mean blood glucose values across experimental mice groups.
Fasting immuno-reactive mouse insulin levels were quantitatively determined in citrated platelet-free plasma samples obtained from 6 hours-fasting mice using an Ultrasensitive mouse Insulin Eliza kit (#90080, Crystal chem., IL, USA) according to the manufacturer instructions. Briefly, platelet-free plasma were isolated from freshly obtained citrated whole blood samples of fasting mice and the provided insulin standards were incubated overnight on a shaking platform at 4 C^0 in a 96 wells plate coated with Guinea pig anti-insulin. Afterwards, unbound sample materials were thoroughly washed with the supplied wash buffers and the bound guinea pig anti-insulin/mouse insulin complex immobilized to the microplate wells were incubated with Horseradish peroxidase (HRP)-conjugated anti-insulin antibody for 40 minutes at room temperature with continuous agitation. Excess unbound HRP-conjugated anti-insulin antibodies were then washed excessively with wash buffers and the HRP-mediated color reaction was developed with the addition of 3,3′,5,5′ tetramethylbenzidine (TMB) substrate solution. The amount of insulin (ng/ml) present in the test samples were then measured via interpolation using the standard curve generated by plotting absorbance (at A^0450-A^0635) versus the corresponding concentration of a wide range (0.1-12.8 ng/ml) of mouse insulin standards according to the provider's instructions. Graphic representation of differences in mean±sem of plasma insulin among different groups of mice were blotted using Prism5 (La Jolla, Calif., USA) software and statistically significant differences (at 95% confidence) were calculated for the different test groups of mice using one way ANOVA followed by Bonferroni modified student t-test comparing differences between individual experimental groups.

[5] = tested on: high fat fed female NZO mice; assay: Ovarian histology of macrolide-treated chronically high fat fed NZO mice; format: in vivo, mouse; conditions: chronically high fat diet fed NZO mice
Experimental: Statistical differences between groups were measured by two-way analysis of variance (ANOVA) followed by Bonferroni post-hock t-test comparing effect of all tested macrolides on mean follicular structure counts/unit area at 95% confidence. Scale bars=200 μm for B, D, F, G, H, I, J and 50 μm for A, C, E. N=10 (HFD-NZO), 6 per treatment group. A, C and E are higher magnifications of B, D and F respectively. * denoting ovarian cyst(s).
as §1

[6] = 0.1 mg/kg s.c. every other day for 3 weeks, vs vehicle

CC[C@@H]1/C=C(\C)C[C@H](C)C[C@H](OC)[C@H]2O[C@@](O)(C(=O)C(=O)N3CCCC[C@H]3C(=O)O[C@H](/C(C)=C/[C@@H]3CC[C@H](Cl)[C@H](OC)C3)[C@H](C)[C@@H](O)CC1=O)[C@H](C)C[C@@H]2OC [pimecrolimus]
embryonic and fetal absorption rate ([1]; same treatments, p<0.05): significantly reduced embryonic and fetal absorption rate
implantation rate ([1]; tacrolimus 0.05 and 0.1 mg/kg, pimecrolimus 0.1 mg/kg, sirolimus 0.1 mg/kg s.c. every other day for three weeks): significantly improved implantation rate (p<0.05)
weight loss [2]: induced statistically significant weight loss
insulin resistance (HOMA-IR) ([3]; p<0.001 vs vehicle): significantly reduced insulin resistance
insulin sensitivity (Si) ([3]; p<0.01 vs vehicle): enhanced insulin sensitivity
pancreatic β-cell function (HOMA-B) ([3]; p<0.05 vs vehicle): enhanced pancreatic β-cell function
fasting basal serum glucose [4, 6]: maintained low fasting basal serum glucose and insulin levels
fasting basal serum insulin [4, 6]: maintained low fasting basal serum glucose and insulin levels
glucose intolerance ([4]; 0.1 mg/kg, FIG. 17C, p=0.0001): significantly reduced glucose intolerance although to a lesser degree than tacrolimus
insulin secretion in response to a hyperglycemic challenge ([4]; tacrolimus 0.1 or 0.05 mg/kg, pimecrolimus 0.1 mg/kg, sirolimus 0.1 mg/kg s.c. every other day for 3 weeks, vs vehicle): significantly improved insulin secretion
follicular growth pattern in the ovaries [5]: restored follicular growth pattern
ovarian cyst formation ([5]; p<0.001): inhibited the development of ovarian cysts
ovarian follicular atresia ([5]; vs untreated HFD-NZO): significantly inhibited ovarian follicular atresia (p<0.01)

— patent US9427433B2, “Methods and compositions for enhancing fertility and/or inhibiting pregnancy failure and restoring glucose tolerance” (Queen's University at Kingston, priority 2011, dated 2016)
